Experimental data from BigSolDB 2.1.

In the case of `O=Cc1ccc([N+](=O)[O-])cc1`, the solubility (mole fraction) (in 2-butanone, 273.15 K) is reported as 0.0367, the solubility (mole fraction) (in 2-butanone, 278.15 K) is reported as 0.0459 and the solubility (mole fraction) (in 2-butanone, 283.15 K) is reported as 0.0567. For the same compound, the solubility (mole fraction) (in 2-butanone, 288.15 K) was 0.0689, the solubility (mole fraction) (in 2-butanone, 293.15 K) was 0.0836 and the solubility (mole fraction) (in 2-butanone, 298.15 K) was 0.102. For the same compound, the solubility (mole fraction) (in 2-butanone, 303.15 K) was 0.122, the solubility (mole fraction) (in 2-butanone, 308.15 K) was 0.147 and the solubility (mole fraction) (in 2-butanone, 313.15 K) was 0.174. It also gave a solubility (mole fraction) (in DMF, 273.15 K) of 0.104, a solubility (mole fraction) (in DMF, 278.15 K) of 0.119 and a solubility (mole fraction) (in DMF, 283.15 K) of 0.135. The solubility (mole fraction) (in DMF, 288.15 K) was 0.152, the solubility (mole fraction) (in DMF, 293.15 K) was 0.17 and the solubility (mole fraction) (in DMF, 298.15 K) was 0.192. It also gave a solubility (mole fraction) (in DMF, 303.15 K) of 0.213, a solubility (mole fraction) (in DMF, 308.15 K) of 0.237 and a solubility (mole fraction) (in DMF, 313.15 K) of 0.262. For the same compound, the solubility (mole fraction) (in acetone, 273.15 K) was 0.0389, the solubility (mole fraction) (in acetone, 278.15 K) was 0.051 and the solubility (mole fraction) (in acetone, 283.15 K) was 0.0662. The solubility (mole fraction) (in acetone, 288.15 K) was 0.0851, the solubility (mole fraction) (in acetone, 293.15 K) was 0.107 and the solubility (mole fraction) (in acetone, 298.15 K) was 0.134. The solubility (mole fraction) (in acetone, 303.15 K) was 0.166, the solubility (mole fraction) (in acetone, 308.15 K) was 0.202 and the solubility (mole fraction) (in acetone, 313.15 K) was 0.244. It also gave a solubility (mole fraction) (in acetonitrile, 273.15 K) of 0.0262, a solubility (mole fraction) (in acetonitrile, 278.15 K) of 0.0351 and a solubility (mole fraction) (in acetonitrile, 283.15 K) of 0.0471. The solubility (mole fraction) (in acetonitrile, 288.15 K) was 0.0614, the solubility (mole fraction) (in acetonitrile, 293.15 K) was 0.0801 and the solubility (mole fraction) (in acetonitrile, 298.15 K) was 0.102. For the same compound, the solubility (mole fraction) (in acetonitrile, 303.15 K) was 0.13, the solubility (mole fraction) (in acetonitrile, 308.15 K) was 0.161 and the solubility (mole fraction) (in acetonitrile, 313.15 K) was 0.199. For the same compound, the solubility (mole fraction) (in ethanol, 273.15 K) was 0.0151, the solubility (mole fraction) (in ethanol, 278.15 K) was 0.0177 and the solubility (mole fraction) (in ethanol, 283.15 K) was 0.0199. For the same compound, the solubility (mole fraction) (in ethanol, 288.15 K) was 0.0232, the solubility (mole fraction) (in ethanol, 293.15 K) was 0.0265 and the solubility (mole fraction) (in ethanol, 298.15 K) was 0.031. The solubility (mole fraction) (in ethanol, 303.15 K) was 0.0366, the solubility (mole fraction) (in ethanol, 308.15 K) was 0.0422 and the solubility (mole fraction) (in ethanol, 313.15 K) was 0.0498. It also gave a solubility (mole fraction) (in ethyl acetate, 273.15 K) of 0.0321, a solubility (mole fraction) (in ethyl acetate, 278.15 K) of 0.0401 and a solubility (mole fraction) (in ethyl acetate, 283.15 K) of 0.0488. The solubility (mole fraction) (in ethyl acetate, 288.15 K) was 0.0591, the solubility (mole fraction) (in ethyl acetate, 293.15 K) was 0.072 and the solubility (mole fraction) (in ethyl acetate, 298.15 K) was 0.087. For the same compound, the solubility (mole fraction) (in ethyl acetate, 303.15 K) was 0.106, the solubility (mole fraction) (in ethyl acetate, 308.15 K) was 0.126 and the solubility (mole fraction) (in ethyl acetate, 313.15 K) was 0.151. It also gave a solubility (mole fraction) (in isopropanol, 273.15 K) of 0.00326, a solubility (mole fraction) (in isopropanol, 278.15 K) of 0.00399 and a solubility (mole fraction) (in isopropanol, 283.15 K) of 0.00451. For the same compound, the solubility (mole fraction) (in isopropanol, 288.15 K) was 0.005, the solubility (mole fraction) (in isopropanol, 293.15 K) was 0.00589 and the solubility (mole fraction) (in isopropanol, 298.15 K) was 0.00703. It also gave a solubility (mole fraction) (in isopropanol, 303.15 K) of 0.00843, a solubility (mole fraction) (in isopropanol, 308.15 K) of 0.00929 and a solubility (mole fraction) (in isopropanol, 313.15 K) of 0.0111. The solubility (mole fraction) (in methanol, 273.15 K) was 0.0263, the solubility (mole fraction) (in methanol, 278.15 K) was 0.0323 and the solubility (mole fraction) (in methanol, 283.15 K) was 0.0398. For the same compound, the solubility (mole fraction) (in methanol, 288.15 K) was 0.0488, the solubility (mole fraction) (in methanol, 293.15 K) was 0.0596 and the solubility (mole fraction) (in methanol, 298.15 K) was 0.0731. For the same compound, the solubility (mole fraction) (in methanol, 303.15 K) was 0.0884, the solubility (mole fraction) (in methanol, 308.15 K) was 0.108 and the solubility (mole fraction) (in methanol, 313.15 K) was 0.13. For the same compound, the solubility (mole fraction) (in n-butanol, 273.15 K) was 0.0118, the solubility (mole fraction) (in n-butanol, 278.15 K) was 0.0128 and the solubility (mole fraction) (in n-butanol, 283.15 K) was 0.0144. It also gave a solubility (mole fraction) (in n-butanol, 288.15 K) of 0.0161, a solubility (mole fraction) (in n-butanol, 293.15 K) of 0.018 and a solubility (mole fraction) (in n-butanol, 298.15 K) of 0.02. The solubility (mole fraction) (in n-butanol, 303.15 K) was 0.0225, the solubility (mole fraction) (in n-butanol, 313.15 K) was 0.0283 and the solubility (mole fraction) (in n-propanol, 273.15 K) was 0.014. For the same compound, the solubility (mole fraction) (in n-propanol, 278.15 K) was 0.0152, the solubility (mole fraction) (in n-propanol, 283.15 K) was 0.0168 and the solubility (mole fraction) (in n-propanol, 288.15 K) was 0.019. For the same compound, the solubility (mole fraction) (in n-propanol, 293.15 K) was 0.0216, the solubility (mole fraction) (in n-propanol, 298.15 K) was 0.0243 and the solubility (mole fraction) (in n-propanol, 303.15 K) was 0.0272. For the same compound, the solubility (mole fraction) (in n-propanol, 308.15 K) was 0.0312, the solubility (mole fraction) (in n-propanol, 313.15 K) was 0.0362 and the solubility (mole fraction) (in toluene, 273.15 K) was 0.0191. The solubility (mole fraction) (in toluene, 278.15 K) was 0.0239, the solubility (mole fraction) (in toluene, 283.15 K) was 0.0297 and the solubility (mole fraction) (in toluene, 288.15 K) was 0.0366. For the same compound, the solubility (mole fraction) (in toluene, 293.15 K) was 0.0449, the solubility (mole fraction) (in toluene, 298.15 K) was 0.0547 and the solubility (mole fraction) (in toluene, 303.15 K) was 0.0657. It also gave a solubility (mole fraction) (in toluene, 308.15 K) of 0.0802 and a solubility (mole fraction) (in toluene, 313.15 K) of 0.0969.
